In patent publication US20120046224A1, “TREATMENT OF DIABETES AND METABOLIC SYNDROME” (NORDIC BIOSCIENCE A/S, priority 2009, published 2012):
No end group written: not given here.

Experiments:
DIO rats = assay: Oral glucose tolerance test (OGTT) in DIO rats; format: in vivo, rat; settings: for plasma insulin response during OGTT: peak 15 minutes after glucose, CT compared to 5-CNAC group; for maximum / peak blood glucose level during OGTT: reached 15 minutes after OGTT (CT), at 60 minutes (5-CNAC)
Experimental: (§1) A total of 48 selectively bred male DIO rats were used. At the beginning of the experiment, the animals had reached an age of 35 weeks, out of which 31 weeks were on high-fat diet.
(§2) At day −7, 21 and 42 fasted serum and urine samples were collected and whole body tissue composition was evaluated by MR scanning. At day 42, an oral glucose tolerance test (OGTT) was performed to evaluate glucose homeostasis in the rats. At day −1 the animals were stratified according to weight and whole body fat mass (assessed by a 4-in-1 EchoMRI scanner) to the different treatment groups. The groups were randomized in three teams by body weight.
First day of dosing was day 0. Animals were dosed per oral 5 ml/kg.
In order to test the glucose handling in different treatment groups, an oral glucose tolerance test (OGTT) was performed.

[1] = Body weight and whole body composition (MR scanning) in DIO rats; format: in vivo, rat; settings: for change in body weight: once daily oral, Calcitonin 2 mg/kg/day with 5-CNAC 150 mg/kg/day, or 5-CNAC 150 mg/kg/day alone; for increase in fat content (MR analysis): CT 2 mg/kg/day with 5-CNAC
Experimental: as §1, §2
First day of dosing was day 0. Animals were dosed per oral 5 ml/kg. The compound solution was administered once daily at 7:00 AM-2:00 PM during the whole study (0-42 days) per oral gavage using a gastric tube connected to a 5 ml syringe (luer lock™. Becton).
To assess the distribution of the gained weight during the treatment program the animals were subjected to MR analysis after termination. Two parameters were investigated: 1) change in fatty mass and, 2) change in total water content.

[2] = 62.26 pmol/kg, patients with a duodenal ulcer; cited from earlier work
[3] = rats, intracerebroventricular administration; cited from earlier work
Sprague Dawley rats = assay: OGTT in healthy lean Sprague Dawley rats; format: in vivo, rat
Experimental: The rats were treated bi daily for 5 weeks using the same dose as in the DIO rats.

[4] = insulin dependent diabetic patients, intravenous infusion; cited from earlier work
[5] = cited from earlier work
[6] = Ovariectomy (OVX)-induced weight gain in Sprague-Dawley rats; format: in vivo, rat
Experimental: (§3) A total of 40 rats were divided into 4 groups, two bilateral ovariectomy (OVX) groups and two normal groups.
(§4) The first day of dosing was day 0. Animals were dosed per oral 5 ml/kg. The compound solution was administered twice daily, the first dose at 7:00 AM and the second dose 8 hours later (between 3 and 4 PM) during the whole study. The dosing was done by oral gavage using a gastric tube connected to a 5 ml syringe. Feeding was ad libitum.
A total of 20 rats were bilaterally ovariectomized (OVX). The animals were treated once daily with either 5-CNAC 150 mg/kg/day alone or that amount of 5-CNAC in combination with Calcitonin 2 mg/kg/day for 8 weeks during which the weight was monitored once a week. Feeding was again ad libitum.
The first day of dosing was day 0. Animals were dosed per oral 5 ml/kg. The compound solution was administered once daily between 7:00 and 8:00 AM during the whole study per oral gavage using a gastric tube connected to a 5 ml syringe.

[7] = intra-muscular, cited from earlier work
[8] = rats or mice, cited from earlier work
[9] = i.m. 100 MRC units twice daily, 15 days; cited from earlier work
[10] = cited from earlier work; for fasting plasma glucose: rats and mice, intravenous bolus injection
[11] = cited from earlier work; for glucose levels: fasting animals, parenterally administered
[12] = rabbits, injection, 600 MRC U per month or 50 MRC U single dose; cited from earlier work
[13] = healthy volunteers, intramuscular; cited from earlier work
[14] = Weight gain in normal Sprague-Dawley rats; format: in vivo, rat; settings: twice daily oral, salmon calcitonin 2 mg/kg/day with 5-CNAC 150 mg/kg/day, 8 weeks, vs control group
Experimental: as §3, §4

[15] = 100 MRC units per day, 2 months, cited from earlier work
CTX-II = assay: Serum CTX-II after oral dosing in fasted rats; format: in vivo, rat; settings: sCT 2 mg/kg, carrier 150 mg/kg
Experimental: Fasted rats were treated with oral doses of carrier alone (5-CNAC or SNAC), sCT alone or sCT in combination with carrier (5-CNAC or SNAC). Blood sampling was conducted at baseline, one, three and six hours after oral dosing, and serum was isolated. Concentrations of CTX-II were subsequently measured in the serum samples.
Rats were randomized according to weight into five groups and fasted over night. […] Blood samples were taken from tail vein at baseline, one, three and six hours after oral dosing. Serum was isolated from the blood samples and CTX-II concentrations were measured in undiluted serum samples. […] Each group contained 6 animals. Statistical analyses were conducted with one-way ANOVA and Bonferroni's Multiple Comparison Test to adjust for multiple tests. Error bars indicate standard error of mean (SEM). Asterisks indicate: **=p<0.01, ***=p<0.001.

[16] = latent diabetes in humans, infusion; cited from earlier work
[17] = rhesus monkeys, parenteral, 5 day administration period; cited from earlier work
[18] = Paget's disease of the bone patients, injection; cited from earlier work
rat hepatocytes = settings: cited from earlier work
[19] = rats fed a high fat diet, delivered by osmotic pump; cited from earlier work
[20] = cited from earlier work; remark: listed apart in the source
[21] = 100 U by i.v. infusion; cited from earlier work
[22] = healthy test persons, infusion; cited from earlier work

O=C(O)CCCCCCCNC(=O)c1cc(Cl)ccc1O [5-CNAC, N-(5-chlorosalicyloyl)-8-aminocaprylic acid]
plasma insulin response during OGTT (DIO rats): the levels stay in the hyperinsulinaemic state throughout the OGTT
maximum / peak blood glucose level during OGTT (DIO rats): 9.8 mM
change in body weight [1]: Neither the CT treated group nor the 5-CNAC group display any change in their body weight

Salmon calcitonin [CT]
post-prandial insulin release [2]: post-prandial insulin release was abolished
glucose stimulated release of insulin [3]: increased glucose stimulated release of insulin
AUC of change in glucose during OGTT (Sprague Dawley rats): potently reduces glucose levels
increase of insulin level in response to OGTT (Sprague Dawley rats): approximately 0.5 μg/L
time until insulin level returned to basal (Sprague Dawley rats; OGTT): 60 min
AUC of change in insulin levels during OGTT (Sprague Dawley rats; between groups, p=0.08): the AUC of change is significant between the groups
basal glucose levels (Sprague Dawley rats; treated bi daily for 5 weeks, same dose as in DIO rats): lowered basal glucose levels
peak glucose level during OGTT (Sprague Dawley rats; vs vehicle (5-CNAC) group): prevented this drastic peak
glucose rise in arginine tolerance test [4]: abolished the glucose rise normally seen in an arginine tolerance test
glucose level and glucagon ([5]; insulin dependent diabetics): a fall in glucose level along with the fall in glucagon
circulating glucagon and serum insulin ([5]; normal human volunteers, infused): a fall in circulating glucagon levels and a fall in serum insulin
OVX-induced weight gain ([6]; once daily oral, 8 weeks): does not protect against OVX-induced weight gain
OVX-induced increase in bodyweight ([6]; twice daily oral, 7 weeks): protected partially against the OVX-induced increase in bodyweight
integrated glucose areas under plasma glucose curves ([7]; humans): approximately doubling
response to a glucose tolerance test ([7]; normal humans): a deterioration in response to a glucose tolerance test
short term food intake ([8]; acute parenteral administration): potently induced reduction in short term food intake
duration of the effect on food intake ([8]; parenteral): 3 days
carbohydrate metabolism after a mixed meal stimulus [9]: not seen to cause appreciable change in carbohydrate metabolism
fasting plasma glucose [10]: elevation of fasting plasma glucose
AUC of change in insulin levels during OGTT (DIO rats): lowest change in insulin levels
AUC of net change in plasma glucose (glucose clearance during OGTT) (DIO rats): significantly increased glucose clearance during the OGTT
effect on AUC of change in glucose (DIO rats; CT compared to Rosiglitazone groups): markedly larger than the changes seen in the Rosiglitazone groups
peak glucose levels during OGTT (DIO rats; CT treated compared to 5CNAC group): strongly reduced peak glucose levels
basal insulin level to which insulin returns after the peak (DIO rats; OGTT): 4.53 µg/L
plasma insulin response during OGTT (DIO rats): attenuated insulin response
maximum / peak blood glucose level during OGTT (DIO rats): 8.2 mM
glucose levels [11]: a rise in glucose levels
glucose level measured after fasting [12]: marked decrease in glucose level
blood glucose during a morning fast and glucose tolerance test [13]: inhibited decrease of blood glucose during a morning fast and impaired a glucose tolerance test
natural weight gain [14]: reduction of the natural weight gain
glucose tolerance ([15]; Paget's disease or osteoporosis patients): Glucose tolerance did not deteriorate significantly
basal plasma glucose [15]: significant increase in basal plasma glucose
serum CTX-II concentration (CTX-II; one hour after oral dosing, vs carrier alone): significantly lowered the CTX-II concentration
serum CTX-II concentration (CTX-II; three and six hours after oral dosing): return to the baseline level
serum level of insulin and blood sugar [16]: reducing the serum level of insulin and increasing the blood sugar
food intake [17]: reduce food intake in rhesus monkeys throughout a 5 day administration period
increase in fat content (MR analysis) ([1]; compared to 5-CNAC and vehicle groups): a significant increase compared to the 5-CNAC and vehicle groups
increase in fat content (MR analysis) ([1]; compared to rosiglitazone group, p<0.0001): significantly lower increase in the fat content compared to rosiglitazone group
change in body weight [1]: Neither the CT treated group nor the 5-CNAC group display any change in their body weight
serum glucose and serum insulin [18]: a moderate immediate rise in serum glucose and a slight decrease in serum insulin
effect on rat hepatocytes and other cells (rat hepatocytes): little effect

amylin (KCNTATCATQRLANFLVHSSNNFGAILSSTNVGSNTY; not fully specified (C-terminus, bridges); cysteine pairing not given here; UniProt P10997 34-70, looked up) [calcitonin family peptide hormone, literature results]
weight gain [19]: caused a reduction in weight gain
glucose levels [11]: a rise in glucose levels
rise in glucose in oral glucose tolerance test ([11]; rats, parenterally administered shortly before the test): reduced the rise in glucose
plasma glucose ([20]; in the absence of a meal): associated with a rise in plasma glucose in rodents, but not in humans
rise in plasma glucose ([20]; in the context of a meal, rats, dogs and humans): suppressed a rise in plasma glucose
effect on rat hepatocytes and other cells (rat hepatocytes): little effect

calcitonin
glycemic recovery ([10]; hypoglycaemic rat, compared to glucagon): a greater glycemic recovery than glucagon
glycaemia in the course of an OGTT [21]: a persistence of hyperglycaemia
insulin secretion [21]: An inhibitory action of calcitonin on insulin secretion was also observed

human calcitonin (CGNLSTCMLGTYTQDFNKFHTFPQTAIGVGAP; ends and bridges not checked; cysteine pairing not given here; listed as Homo sapiens)
glucose assimilation and insulin output [22]: significant impairment of glucose assimilation and insulin output
serum glucose and serum insulin [18]: a moderate immediate rise in serum glucose and a slight decrease in serum insulin

rat calcitonin (CGNLSTCMLGTYTQDLNKFHTFPQTSIGVGAP; ends and bridges not checked; cysteine pairing not given here)
fasting plasma glucose [10]: a lesser effect
effect on rat hepatocytes and other cells (rat hepatocytes): little effect
